Data reported in patent US20040142978A1, “Aminocyanopyridine inhibitors of mitogen activated protein kinase-activated protein kinase-2” (Pharmacia Corporation, priority 2002, published 2004).
Counter-ions that a name gives are not always drawn. Like-named read-outs stand apart in the source and are kept apart here.

Assays:
TNFα production = assay: Lipopolysaccharide (LPS)-Induced TNFα Production (Rat LPS assay, serum TNFα ELISA); format: in vivo, Lewis rats; details: 20 mpk (IG)
Experimental: Adult male 225-250 gram Lewis rats (Harlan Sprague-Dawley) were used. Rats were fasted 18 hr prior to oral dosing, and allowed free access to water throughout the experiment. Each treatment group consisted of 5 animals.
Compounds were prepared as a suspension in a vehicle consisting of 0.5% methylcellulose, 0.025% Tween-20 in PBS. Compounds or vehicle were orally administered in a volume of 1 ml using an 18 gauge gavage needle. LPS (E. coli serotype 0111:B4, Lot #39H4103, Cat. # L-2630, Sigma) was administered 1-4 hr later by injection into the penile vein at a dose of 1 mg/kg in 0.5 ml sterile saline. Blood was collected in serum separator tubes via cardiac puncture 1.5 hr after LPS injection, a time point corresponding to maximal TNFα production. […]
ELISA plates (NUNC-Immuno™ Plate Maxisorb™ Surface) were coated with 0.1 ml per well of an Protein G purified fraction of a 2.5 ug/ml of hamster anti-mouse/rat TNFα monoclonal antibody TN19.12 (2.5 ug/ml in PBS, 0.1 ml/well). […] Enzymatic conversion of ABTS to colored product was measured after ˜30 minutes using a SpectroMax 340 spectrophotometer (Molecular Devices Corp.) at 405 nm. TNF levels in serum were quantitated from a recombinant rat TNFα (BioSource International, Cat. #PRC3014.) standard curve using a quadratic parameter fit generated by SoftMaxPRO software. […]

[1] = system: TNFα release from U937 cells; assay: U937 Cell TNFα Release Assay (LPS-stimulated, TNFα ELISA); format: cell-based; details: Homo sapiens, read-out: TNFα release assay IC50
Experimental: The human monocyte-like cell line, U937 (ATCC #CRL-1593.2), is cultured in RPMI1640 media with 10% heat-inactivated fetal calf serum (GIBCO), glutamine and pen/strep at 37° C. and 5% CO2. Differentiation of U937 to monocytic/macrophage-like cells is induced by the addition of phorbol12-myristate 13-acetate (Sigma) at final concentration of 20 ng/ml to a culture of U937 cells at ˜0.5 million cells/ml and incubated for 24 hrs. The cells are centrifuged, washed with PBS and resuspended in fresh media without PMA and incubated for 24 hrs. Cells adherent to the culture flask are harvested by scraping, centrifugation, and resuspended in fresh media to 2 million cells/ml, and 0.2 ml is aliquoted to each of 96 wells in flat-bottom plate. Cells are then incubated for an additional 24 hrs to allow for recovery. The media is removed from the cells, and 0.1 ml of fresh media is added per well. 0.05 ml of serially diluted compound or control vehicle (Media with DMSO) is added to the cells. […] After 1 hr incubation, 0.05 ml of 400 ng/ml LPS (E Coli serotype 0111:B4, Sigma) in media is added for final concentration of 100 ng/ml. Cells are incubated at 37° C. for 4 hrs. After 4 hrs incubation, supernatants are harvest and assayed by ELISA for the presence of TNFα.
ELISA plates (NUNC-Immuno™ Plate Maxisorb™ Surface) were coated with purified mouse monoclonal IgG1 anti-human TNFα antibody (R&D Systems #MAB610; 1.25 ug/ml in sodium bicarbonate pH 8.0, 0.1 ml/well) and incubated at 4° C. Coating solution was aspirated the following day and wells were blocked with 1 mg/ml gelatin in PBS (plus 1× thimerasol) for 2 days at 4° C. Prior to using, wells were washed 3× with wash buffer (PBS with 0.05% Tween). Cultured media samples were diluted in EIA buffer (5 mg/ml bovine γ-globulin, 1 mg/ml gelatin, 1 ml/l Tween-20, 1 mg/ml thimerasol in PBS), added to wells (0.1 ml/well) in triplicate and allowed to incubate for 1.5 hr at 37° C. in a humidified chamber. Plates were again washed and 0.1 ml/well of a mixture of rabbit anti-human TNFα polyclonal antibodies in EIA buffer (1:400 dilution of Sigma #T8300, and 1:400 dilution of Calbiochem #654250) was added for 1 hr at 37° C. Plates were washed as before and peroxidase-conjugated goat anti-rabbit IgG (H+L) antibody (Jackson lmmunoResearch #111-035-144, 1 ug/ml in EIA buffer, 0.1 ml/well) was added for 45 min. After final washing, plates were developed with peroxidase-ABTS solution (Kirkegaard/Perry #50-66-01, 0.1 ml/well). Enzymatic conversion of ABTS to colored product was measured after 5-30 minutes using a SpectroMax 340 spectrophotometer (Molecular Devices) at 405 nm. TNF levels were quantitated from a recombinant human TNFα (R&D Systems #210-TA-010) standard curve using a quadratic parameter fit generated by SoftMaxPRO software. ELISA sensitivity was approximately 30 pg TNF/ml. IC50 values for compounds were generated using BioAssay Solver.

[2] = target: Recombinant MAPKAPK2 (MK-2) (Homo sapiens, UniProt P49137); assay: Determination of MK-2 IC50 (anion exchange resin capture assay, phosphorylation of HSP-peptide); format: biochemical
Experimental: The phosphorylation of HSP-peptide ([…]) by MAPKAPK2 was measured using an anion exchange resin capture assay method. […] The reaction was terminated and [γ^33P]ATP was removed from solution by the addition of 150 μl of AG 1×8 ion exchange resin in 900 mM sodium formate pH 3.0. A 50 μl aliquot of head volume was removed from the quenched reaction mixture and added to a 96-well plate, 150 μl of Microscint-40 (Packard) was added and the amount of phosphorylated-peptide was determined. Allow the Microscint to sit in the plates for 60 minutes prior to counting.
Compounds are evaluated as potential inhibitors of the MK2 kinase by measuring their effects on MK2 phosphorylation of the peptide substrate. Compounds may be screened initially at two concentrations prior to determination of IC50 values. Screening results are expressed as percent inhibition at the concentrations of compound tested. For IC50 value determinations, compounds are tested at six concentrations in ten-fold serial dilutions with each concentration tested in triplicate. Results are expressed as IC50 values in micromolar. The assay is performed at a final concentration of 2% DMSO.

[3] = U-937, U937 cells, LPS 100 ng/ml, 4 hrs

Sequence of Recombinant MAPKAPK2 (MK-2) (P49137 whole entry, species assumed): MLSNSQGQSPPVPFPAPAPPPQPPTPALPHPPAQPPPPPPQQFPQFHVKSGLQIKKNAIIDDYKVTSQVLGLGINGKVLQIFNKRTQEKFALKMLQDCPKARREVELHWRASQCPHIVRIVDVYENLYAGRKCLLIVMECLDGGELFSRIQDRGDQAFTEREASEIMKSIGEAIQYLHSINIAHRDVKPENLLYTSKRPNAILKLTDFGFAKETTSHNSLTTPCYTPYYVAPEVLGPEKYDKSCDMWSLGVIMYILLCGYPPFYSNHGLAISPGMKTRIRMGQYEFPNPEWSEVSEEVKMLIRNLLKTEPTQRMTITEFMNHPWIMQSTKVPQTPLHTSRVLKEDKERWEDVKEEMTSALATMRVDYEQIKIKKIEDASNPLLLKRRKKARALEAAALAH

Question: `N#Cc1c(-c2cnc[nH]2)cc(-c2cccc(O)c2)nc1N` [Example 4, 2-amino-6-(3-hydroxyphenyl)-4-(1H-imidazol-5-yl)nicotinonitrile trifluoroacetate] was tested. Which “Rat LPS assay: inhibition of TNFα production” value (TNFα production) did it give?
Answer: 41%

Question: And the IC50 ([1]; U-937, 4 h)?
Answer: 7 µM

Question: For `N#Cc1c(-c2ccc(B(O)O)cc2)cc(-c2ccco2)nc1N` [Example 88, bis(trifluoroacetate)], which IC50 [2] is on record?
Answer: 64.6 µM

Question: Which IC50 [1, 3] does the source give for `N#Cc1c(N)nc2c(c1-c1ccccc1)CCc1n[nH]cc1-2` [Example 100, 2-amino-4-phenyl-6,8-dihydro-5H-pyrazolo[3,4-h]quinoline-3-carbonitrile bis(trifluoroacetate)] here?
Answer: 17.7 µM

Question: What does the source list for `N#Cc1c(N)nc2c(c1-c1cccc(F)c1F)CCc1[nH]ncc1-2.O=C(O)C(F)(F)F.O=C(O)C(F)(F)F` [Example 102, 2-amino-4-(2,3-difluorophenyl)-6,7-dihydro-5H-pyrazolo[3,4-h]quinoline-3-carbonitrile bis(trifluoroacetate)]?
Answer: Rat LPS assay: inhibition of TNFα production (TNFα production): 83%; IC50 ([1]; U-937, 4 h): 4 µM

Question: With `N#Cc1c(N)nc2c(c1-c1ccco1)CCc1cn[nH]c1-2` [Example 105, 8-amino-6-(2-furyl)-4,5-dihydro-1H-pyrazolo[4,3-h]quinoline-7-carbonitrile] as the molecule, how does the IC50 [1, 3] read?
Answer: 0.9 µM

Question: With `N#Cc1c(-c2ccco2)cc(-c2cc[nH]n2)nc1N` [Example 106, 2-amino-4-(2-furyl)-6-(1H-pyrazol-3-yl)nicotinonitrile trifluoroacetate] as the molecule, how does the IC50 [1, 3] read?
Answer: 4 µM

Question: With `CCOCC1Cc2c(nc(N)c(C#N)c2N)O1` (stereo not drawn) [Example 125, trifluoroacetate] as the molecule, how does the IC50 [2] read?
Answer: 127 µM
